Data on one molecule can be found in PMC7756445, “A Novel Prodrug of a nNOS Inhibitor with Improved Pharmacokinetic Potential” (Chemmedchem, 2020).

A short description of data set [1]: Chemical stability in nonenzymatic simulated gastric and intestinal fluids. The data set is classed as physicochemical. The settings on record: 2 h. The procedure: The effects of gastrointestinal digestion are important parameters to be taken into consideration in the determination of bioavailability and bioactivity of new compounds. In particular, the luminal instability, due to the pH or enzymatic degradation, may compromise the transmucosal transport of the prodrug designed for permeability enhancement. Therefore, in this study the chemical stability of compound 2 was assessed to exclude any undesirable degradation at acid and physiological environments. Hydrochloric acid buffer (pH 2.0) as a nonenzymatic simulated gastric fluid (SGF), and phosphate buffer (pH 7.4) as nonenzymatic simulated intestinal fluid (SIF) were employed to evaluate the chemical stability. […] For chemical stability, a 0.01 M hydrochloric acid buffer (pH 1.3) and 0.01 M phosphate buffer (pH 7.4) were used. To assess enzymatic stability, the same hydrochloric buffer with and without pepsin (10 or 40 mg/mL) and phosphate buffer with and without pancreatin (10 or 40 mg/mL) were used. […] The mixture was vortexed and centrifuged at 2 °C and 10 000 rpm, Swing‐out Rotor, for 10 min, and the content of tested compound in the supernatant was analyzed by HPLC. Experiments were run in triplicate and the mean values of the rate constants were calculated.

Data set [2] concerns the target T1, human iNOS (Homo sapiens, UniProt P35228).
T1 construct: purchased Enzo Life Sciences, Inc. (New York, USA)
Description: NOS inhibition, L-Arg to L-Cit conversion by HPLC with fluorescence detection. The class given is biochemical. The note with it: at 1 μM. The procedure:
(§1) The amidoxime 2 was evaluated for its in vitro NOS inhibitory activity, by measuring the conversion of L‐Arg to L‐Cit, using a validated HPLC method with fluorescence detection, as previously reported.[ ^39 , ^40 , ^41 ] The human nNOS and iNOS inhibition percent were calculated at 1 μM, while bovine eNOS inhibition was evaluated at 10 μM in order to have an assessment of compound selectivity toward eNOS. Considering the highly conserved primary sequence (>90 %) between the human and bovine eNOS, this latter extremely resembles the human isozyme. In particular, there is only one amino acid variation in a hydrophobic pocket that is on the outside of the heme active site. Therefore the different source of eNOS is usually well accepted and should not affect the inhibitor evaluation. ^[42]
(§2) Recombinant human iNOS and nNOS, were purchased from Enzo Life Sciences, Inc. (New York, USA), while bovine recombinant eNOS was purchased from Cayman Chemicals (Ann Arbor, Michigan, USA). HPLC analyses were performed using a Waters system composed of a P600 model pump, a 2475 multi‐fluorescence detector, and a 7725i model sample injector (Rheodyne, Cotati, CA, USA) equipped with a 5 μL loop. The column was a XTerra MS C8 (250×4.6 mm i.d., […]; Waters). A column thermostat oven module Igloo‐Cil (Cil Cluzeau Info Labo, France) was used. Chromatograms were recorded on a Fujitsu Siemens Esprimo computer and data were processed by the Empower Pro software (Waters). The appropriate mobile phase was prepared daily, filtered through a 0.45 μm WTP membrane (Whatman, Maidstone, UK), sonicated and degassed before use. Column temperature was kept constant at 20 °C. All assays were performed in triplicate.
(§3) Enzymes were diluted in 2‐[4‐(2‐hydroxyethyl)piperazin‐1‐yl]ethanesulfonic acid (HEPES) buffer (pH 7.4) to obtain iNOS and nNOS 2.5 μg/mL stock solutions, and eNOS 300 μg/mL stock solution. To measure iNOS activity, 10 μL of iNOS stock solution were added to 80 μL of HEPES buffer at pH 7.4, containing 0.1 mM CaCl2, 1 mM D,L‐dithiothreitol (DTT), 0.5 mg/mL bovine serum albumin (BSA), 10 μM flavin mononucleotide (FMN), 10 μM flavin adenine dinucleotide (FAD), 30 μM tetrahydrobiopterin (BH4), 10 μg/mL calmodulin (CaM) and 10 μM L‐Arg. To measure eNOS and nNOS activities, 25 μL of enzyme stock solution were added to 75 μL of HEPES buffer pH 7.4, containing 2 mM CaCl2, 1 mM DTT, 0.5 mg/mL BSA, 10 μM FMN, 10 μM FAD, 30 μM BH4, 10 μg/mL CaM and 10 μM L‐Arg. Then, 10 μL of a 10 μM (iNOS and nNOS assay) or 100 μM (eNOS assay) solution of the test compound was added to the enzyme assay solution, followed by pre‐incubation of 15 min at 37 °C. The reaction was initiated by the addition of 10 μL of nicotinamide adenine dinucleotide phosphate (NADPH) 7.5 mM (iNOS) or 10 mM (eNOS and nNOS), carried out at 37 °C for 20 min, and stopped by adding 500 μL of ice‐cold CH3CN. The mixture was brought to dryness under vacuum and eventually stored at −20 °C, before the fluorescence derivatization. The o‐phthalaldehyde‐N‐acetylcysteine (OPA/NAC) reagent for fluorescence derivatization was prepared with the molar ratios of 1 : 3, reacting 5 mL of methanolic OPA solution and 20 mL of 0.2 M borate buffer containing 0.1 g of NAC for 90 min to final pH 9.3±0.05. The OPA/NAC solution was stored at 4 °C and saved for no longer than seven days. […] The fluorescence reaction is realized stirring 190 μL of supernatant and 60 μL of OPA/NAC solution for 5 min. […]

Data set [3] concerns the target T2, human nNOS (Homo sapiens, UniProt P29475).
T2 construct: purchased Enzo Life Sciences, Inc. (New York, USA)
The data set is described as above. The data set is classed as biochemical. The note with it: read-out: nNOS enzymatic inhibition. The procedure: as §1, §2, §3

Data set [4] deals with T3, bovine eNOS (Bos taurus, UniProt P29473).
T3 construct: purchased Cayman Chemicals (Ann Arbor, Michigan, USA)
Described as above. The data set is classed as biochemical. The note with it: at 10 μM. How it is done:
as §1, §2, §3

Each structure is given as a SMILES string.

`C/C(=N\O)NC(c1ccccc1)c1ccccc1` [Compound 2, (1E)‐N‐(diphenylmethyl)‐N′‐hydroxyethanimidamide]: the “chemical stability in nonenzymatic simulated gastric fluid (SGF)” value in data set [1] (hydrochloric acid buffer pH 2.0 (method: pH 1.3), 37 °C) is “stable”. Besides, the “chemical stability in nonenzymatic simulated intestinal fluid (SIF)” value in data set [1] (phosphate buffer pH 7.4, 37 °C) is on record as “stable”. Further, the “iNOS inhibition (in words)” value in data set [2] was “not able to inhibit”; in data set [2] (listed as amidoxime), “inactivity”. Further, the inhibition (commonly the relative decrease from the control value, in per cent) at 1 µM in data set [3] was 53%. Further, the “eNOS inhibition (in words)” value in data set [4] is given as “not able to inhibit”; in data set [4] (listed as amidoxime), “inactivity”.
